Measured values as given in paper PMC8571052 (ChemMedChem, 2021).

Tests used:
Assay type in all cases: cell-based, human
[1] = test system: MDA-MB-231; assay: PrestoBlue cell viability assay, MDA-MB-231; details: for IC50: MDA-MB-231, 24 h incubation, PrestoBlue
[2] = test system: MDA-MB-468; assay: PrestoBlue cell viability assay, MDA-MB-468; details: MDA-MB-468, 24 h incubation
[3] = test system: HCC-1806; assay: PrestoBlue cell viability assay, HCC-1806; details: for IC50: HCC-1806, 24 h incubation, PrestoBlue
[4] = test system: MCF10a; assay: PrestoBlue cell viability assay, non-malignant breast cells MCF10a; details: 24 h incubation
[5] = test system: IMR90; assay: PrestoBlue cell viability assay, lung fibroblasts IMR90; details: IMR90, 24 h incubation
[6] = test system: MDA-MB-231; assay: Cell death assay; details: MDA-MB-231, IC50 concentration, 24 h, Annexin V/PI
[7] = test system: HCC-1806; assay: Cell death assay; details: HCC-1806, IC50 concentration, 24 h, Annexin V/PI
[8] = test system: MDA-MB-231; assay: Cell cycle profile; details: MDA-MB-231, IC20 concentration, 24 h; non-treated cells 16%
[9] = test system: HCC-1806; assay: Cell migration, 2D wound-healing scratch assay, HCC-1806; details: 24 h
[10] = test system: MDA-MB-231; assay: Cell invasion, 3D Transwell assay with Geltrex matrix, MDA-MB-231; details: MDA-MB-231, IC20 concentration, 24 h
[11] = test system: HCC-1806; assay: Cell invasion, 3D Transwell assay with Geltrex matrix, HCC-1806; details: 24 h
[12] = test system: HUVEC; assay: IC10 concentration in HUVEC cells
[13] = test system: HUVEC; assay: Endothelial tube formation assay; details: IC10 concentration

Structure (SMILES) | IC50 [1] [µM] | IC20 ([1]; read-out: IC20 values employed, MDA-MB-231 (same value for both cell lines)) [µM] | IC50 [2] [µM] | IC50 [3] [µM] | IC20 ([3]; read-out: IC20 values employed, HCC-1806 (same value for both cell lines)) [µM] | IC50 [4] [µM] | IC50 [5] [µM] | cells that die by apoptosis [6] [%] | apoptosis [7] [%] | cells in G2/M arrest [8] [%] | reduction of migration ([9]; HCC-1806, IC20 concentration) [%] | decrease in antimigratory properties in HCC-1806 with respect to MDA-MB-231 ([9]; IC20 concentration) | invasion reduction [10] [%] | invasion reduction ([11]; HCC-1806, IC20 concentration) [%] | reduction of the antiinvasive properties in HCC-1806 with respect to MDA-MB-231 ([11]; IC20 concentration) [%] | IC10 concentration [12] [µM] | disruption in tube length (TL) [13] [%] | disruption of tube length (first statement) [13] [%]
Cc1ccc(C(C)C)cc1.[Cl][Ru]([Cl])[PH]12CN3CN(CN(C3)C1)C2 [RAPTA-C, [Ru(η^6-p-cymene)Cl2(1,3,5-triaza-7-phosphaadamantane])] | > 300 | 250 | > 300 | > 300 | 250 | > 300 | > 300 | 30.8 | 27.25 | 23 | 42.7 | ca. 17.6% | 66.9 | 41.2 | 25.7 | 150 | 22 | 27
N.N.[Cl][Pt][Cl] [cisplatin] | 132 ± 18 |  | 44.2 ± 2.1 | 163 ± 5.86 |  | 32.9 ± 6.68 | 149 ± 13.1 |  |  |  |  |  |  |  |  |  |  | 
